Reference: patent US20130171273A1, “METHOD OF TREATING IMPAIRED WOUND HEALING IN DIABETICS” (KUWAIT UNIVERSITY, priority 2011, published 2013)
Several values for one entry are separate records, joined by “and”; a condition that tells them apart may be missing. Identical values can stand only once. Like-named read-outs stand apart in the source and are kept apart here.

Key:
[1] = test system: control fibroblasts (CFs); details: rat, 16 h
Protocol: (§1) To quantify relative cell death in control and diabetic fibroblasts, cells were seeded at 1×10^4 cells/well on a 96-well plate. After a 24 h incubation period, the cells were exposed to various concentrations of HP in serum-free medium at 37° C. for 2 h [lactate dehydrogenase (LDH), a marker for necrotic cell death] or for 16 h (cell viability and apoptosis assay). Quantification of cell viability and caspase-3-like activity was achieved using a Cell Counting Kit-8 (Dojindo, Kumamoto, Japan) and an Apo-ONE homogenous caspase-3/7 assay (Promega), respectively. The values obtained were normalized to the vehicle-treated cells. To measure the rate of necrotic cell death, a LDH release assay was performed using a CytoTox-ONE Homogeneous Membrane Integrity Assay kit (Promega). In some experiments, cells were pre-incubated for 1 h with 2 μg of the ATPase inhibitor oligomycin before exposure to HP.

[2] = test system: diabetic fibroblasts (DFs); details: for loss in cell viability: rat, 16 h
Protocol: as §1

CFs and DFs = test: Lipid peroxidation (DPPP fluorescence) in control and diabetic fibroblasts; format: cell-based, rat; details: stressed CFs and DFs; markedly higher in diabetic than in control cells, FIG. 1E
Protocol: To measure lipid peroxidation and plasma membrane redox system (PMRS) enzymes, a total of 10-20 μg of purified plasma membrane protein in a butler containing 50 mM Tris at pH 7.6, 0.2 mM NADH, and 0.1% Triton X-100 was analyzed in the spectrophotometric determination (340 nm) of the activities of NADH CoQ and NADH-ascorbate free radical reductase [also known cytochrome b5 reductase, following the respective additions of coenzyme Q (0.2 mM) and fresh ascorbate (0.4 mM). NQO1 activity was measured at 550 nm in solution buffer containing 5 mM. Tris-HCl at pH 7.6, 0.2 mM NADPH, 0.1% Triton X-100, 10 μM menadione and 75 μM cytochrome c with or without dicoumarol. Calculation of the activity of NQO1 was based on the difference between the uninhibited and the dicoumarol-inhibited samples. Cells were assessed for lipid peroxidation using the diphenyl-1-pyrenylphosphine (DPPP, Invitrogen) fluorescence-based assay. […] The plate was read for DPPP fluorescence (excitation at 340 nm and emission at 405 nm) in a 96-well fluorescence plate reader. […]
To monitor whether the diabetes-induced elevation in intracellular levels of ROS may reflect an increase in lipid peroxidation, a marker of accumulative oxidative stress (OS), the lipid peroxide formation of CFs and DFs at baseline and under stressed conditions was measured using the dye DPPP, which intercalates and reacts with lipid hydroperoxides.

[3] = test system: control fibroblasts (CFs); test: Caspase-3-like activity (Apo-ONE caspase-3/7 assay), control fibroblasts; format: cell-based, rat
Protocol: as §1

NADPH oxidase = test: NADPH-dependent superoxide generation in membrane fractions (lucigenin chemiluminescence / SOD-inhibitable cytochrome c reduction); format: biochemical, rat; details: membrane fractions of diabetic fibroblasts
Protocol: To study NADPH oxidase activity, cell pellets collected by trypsinization and suspended in 20 mM MOPS-KOH buffer, pH 7.4 containing 250 mM, 0.1 mM EDTA and a cocktail of protease inhibitors. The cells were disrupted by sonication on ice and the cell lysates were fractionated by centrifugation twice at 29,000×g for 15 min, discarding the supernatant each time. The pellet was resuspended in sucrose buffer and assayed for NADPH oxidase activity using lucigenin chemiluminescence or cytochrome c reduction-based assay. Briefly, membrane fractions (˜10 μg protein) were diluted in sucrose buffer/protease inhibitors and then lucigenin was added ((5 μM) in the presence or absence of 100 μM NADPH. The chemiluminescence was measured in 30 sec intervals over 5 min. The specificity of superoxide measured was confirmed by adding peg-SOD (10 units/ml). For the assessment of SOD-inhibitable cytochrome reduction, ˜100 μg membrane protein was added to a buffer containing cytochrome c (50 μM), NADPH (100 μM) and in the presence or absence of peg-SOD. After one hr, activity was measured as the SOD-inhibitable increase in absorbance at 550 nm (EmM=21). Assay conditions were established confirming the linearity of superoxide production with time and protein concentrations.
Following the procedures above, it was determined that superoxide generation over a 30-minute period was 55% higher in DFs relative to corresponding control values (FIG. 1A). This radical is a by-product of mitochondrial respiration and enzymatic oxidases. Accordingly, it was examined whether the observed elevation in superoxide stemmed from enhanced activity of the non-phagocytic NAD(P)H oxidase.

Nrf2 [4] = test: Nuclear accumulation of Nrf2 in diabetic fibroblasts (subcellular fractionation, Western blot); format: cell-based, rat; details: for nuclear accumulation of Nrf2: DFs, OS-inducing agent, compared with CFs, FIG. 3D
Protocol: To quantify responses to oxidative stress activators, fibroblasts of control and of type 2 diabetes were treated with vehicle or the OS-inducing agents ‘t-butylhydroquinone (tBHQ, 100 μM, Sigma) or oligomycin (15 μM, Sigma) for 16 h. The Cells were processed for total RNA extraction or western blotting analysis as outlined below. Both of these compounds were dissolved in ethanol with a final concentration of 0.01%. […] To analyze protein expression and phosphorylation, cells were seeded in 6-well plates and treated as described above. They were washed with ice-cold PBS, scraped into PBS, and centrifuged at 1000 rpm for 5 min. The cell pellet was then subjected to subcellular fractionation. To make the total cell lysate, the cells were lysed with RIPA buffer supplemented with a protease inhibitor mixture and a phosphatase inhibitor mixture. The protein concentration was determined using BCA protein assay reagents (Pierce). Fifty micrograms of total cell lysate (or cytosolic, or nuclear) fractions were resolved on a 10% SDS-polyacrylamide gel, Western blotted, and probed with antibodies specific for Nrf2, Kcap1 or Fyn (all from Santa Cruz) or GSK-3β, GSK-3β-phosho-Ser9 (P-GSK3-β, and phosphor GSK-α/-β (pTyr279/pTyr216) (Cell Signaling). The purity of the subcellular fractions was confirmed using the anti-LDH antibody (Chemieon International) and the anti-PCNA antibody (Santa Cruz) for cytosolic and nuclear fractions, respectively. The levels of protein on a Western blot were assessed using Quantity One Image software (Bio-Rad) and normalized against suitable loading controls, including anti-β-actin antibody for total and cytosolic fractions and anti-PCNA antibody for the nuclear fraction.

[5] = test system: diabetic fibroblasts (DFs); test: Superoxide generation in diabetic fibroblasts (dihydroethidium fluorescence); format: cell-based, rat; details: superoxide generation over a 30-minute period, FIG. 1A
Protocol: Primary rat fibroblasts were derived from dorsal skin biopsies performed on four diabetic Goto Kakizaki rats (DFs) and four age (12-14 months) and sex (female) matched Wistar control rats (CFs). After sterilization in povidine solution, the rat skin was washed in sterile water and rinsed in 70% ethanol in phosphate buffered saline (PBS). The epidermis and dermis were separated following overnight incubation in 0.25% Trypsin/EDTA at 4° C. Samples were washed, diced and digested for thirty min at 37° C. in collagenase type I (250 U/ml) dissolved in Dulbecco's modified Eagle medium (DMEM; Invitrogen) containing penicillin (100 U/ml), streptomycin (100 μg/ml), 2 mM L-glutamine and 26 mM HEPES. After collagenase treatment, the cells were dislodged, centrifuged and resuspended in medium supplemented with 10% fetal bovine serum. […]
To characterize oxidative conditions of cutaneous tissue, cells in 96-well plates were washed with Krebs Ringer buffer and then incubated at 37° C. in the presence of 10 μM of dihydroethidium (DHE, Molecular Probes). Fluorescence readings were taken at Ex 530 nm and Em=595 nm over a 30 min period. The determination of GSH (reduced glutathione) was achieved using the fluorescence probe monochlorobimane (MCB, Molecular Probes). Cells were incubated with 100 μl of […] MCB for 20 min at 37° C., and the fluorescence intensity was measured at Ex=390 nm and Em=460 nm. […]

Nrf2 [6] = test: Nuclear accumulation of Nrf2 in control fibroblasts (subcellular fractionation, Western blot); format: cell-based, rat; details: CFs, OS-inducing agent, FIG. 3D
Protocol: (§2) To quantify responses to oxidative stress activators, fibroblasts of control and of type 2 diabetes were treated with vehicle or the OS-inducing agents ‘t-butylhydroquinone (tBHQ, 100 μM, Sigma) or oligomycin (15 μM, Sigma) for 16 h. The Cells were processed for total RNA extraction or western blotting analysis as outlined below. Both of these compounds were dissolved in ethanol with a final concentration of 0.01%. […] To analyze protein expression and phosphorylation, cells were seeded in 6-well plates and treated as described above. They were washed with ice-cold PBS, scraped into PBS, and centrifuged at 1000 rpm for 5 min. The cell pellet was then subjected to subcellular fractionation. To make the total cell lysate, the cells were lysed with RIPA buffer supplemented with a protease inhibitor mixture and a phosphatase inhibitor mixture. The protein concentration was determined using BCA protein assay reagents (Pierce). […]

[7] = test system: control fibroblasts (CFs); test: mRNA of Nrf2-regulated genes by real-time PCR in control fibroblasts; format: cell-based, rat
Protocol: (§3) To quantify responses to oxidative stress activators, fibroblasts of control and of type 2 diabetes were treated with vehicle or the OS-inducing agents ‘t-butylhydroquinone (tBHQ, 100 μM, Sigma) or oligomycin (15 μM, Sigma) for 16 h. The Cells were processed for total RNA extraction or western blotting analysis as outlined below. Both of these compounds were dissolved in ethanol with a final concentration of 0.01%. […] To measure transcription of Nrf2 target genes and NADPH oxidase genes, RNA (1 μg) was isolated from cultured fibroblasts using Trizol reagent (Invitrogen) and reverse transcribed for 1 h at 37° C. using the High Capacity cDNA Reverse Transcription Kit. Real-time quantitative RT-PCR was performed with the TaqMan Gene Expression Assay and was normalized against 18S RNA using an ABI 7900 Real-time PCR System (Applied Biosystems). Primers and probes were designed by and purchased from Applied Biosystems. Primer efficiency and specificity were verified by amplifying standard dilutions of a probe obtained by pooling all the samples and by melting curve analysis, respectively.

[8] = test system: diabetic fibroblasts (DFs); test: mRNA of Nrf2-regulated genes by real-time PCR in diabetic fibroblasts; format: cell-based, rat; details: tBHQ treatment
Protocol: as §3

Nrf2 [9] = test: Nrf2 level in total cell lysates (Western blot); format: cell-based, rat; details: control and diabetic fibroblasts, to about the same extent, FIG. 3A
Protocol: as §2

[10] = CFs / normal fibroblasts, tBHQ treatment

## OO [HP, hydrogen peroxide]
[1]; 37.5 μM
  loss in cell viability: 6%
[1]; 50 μM
  loss in cell viability: 22%
[1]; 75 μM
  loss in cell viability: 53%
[2]; 50 μM HP
  fold increase in caspase-3-like activity: 5.4 fold
[2]; 37.5 μM
  loss in cell viability: 17%
[2]; 50 μM
  loss in cell viability: 55%
[2]; 75 μM
  loss in cell viability: 78%
CFs and DFs
  lipid peroxidation (DPPP fluorescence): enhancement in lipid peroxidation
[3]; controls (CFs), 50 μM HP
  fold increase in caspase-3-like activity: 8.2 fold

## COC(=O)[C@@H](N)CCCNC(=N)N[N+](=O)[O-] [L-NAME]
NADPH oxidase
  effect on superoxide production: did not have a significant effect

## Cn1sc(=O)n(Cc2ccccc2)c1=O [TDZD-8, 4-benzyl-2-methyl-1,2,4-thiadiazolidine-3,5-dione]
Nrf2 [4]; DFs pretreated 8 h with lithium chloride 50 mM or TDZD-8 50 μM, FIG. 4B only shown for lithium
  basal and inducible levels of nuclear Nrf2: partially normalized

## c1ccc(Cn2nnc3c(Sc4nc5ccccc5o4)ncnc32)cc1 [VAS2870]
NADPH oxidase; FIG. 1B
  reduction of NADPH-dependent superoxide production (activity): about 87%
[5]
  reduction of the diabetes-related increase in superoxide: about 31%

## Oc1ncnc2[nH]ncc12 [allopurinol]
NADPH oxidase
  effect on superoxide production: did not have a significant effect

## CC[C@H]1/C=C/C=C/C[C@@H](C)[C@H](O)[C@@](C)(O)C(=O)[C@@H](C)[C@H](O)[C@@H](C)C(=O)[C@@H](C)[C@H](O)[C@@H](C)/C=C/C(=O)O[C@@H]2[C@H](C)[C@H](CC1)O[C@]1(CC[C@H](C)[C@H](C[C@@H](C)O)O1)[C@H]2C [oligomycin]
Nrf2 [6]
  Nrf2 in the nuclei-enriched fraction: markedly elevated
Nrf2 [4]
  nuclear accumulation of Nrf2: far smaller increase
[7]; CFs, oligomycin treatment, FIG. 3F
  expression of Mn-SOD, catalase, GSTP1, GCLC and NQO1 mRNA: increase in the expression of Mn-SOD, catalase, GSTP1 and GCLC but not of NQO1
[3]; CFs pre-treated with a 2-μg dose of oligomycin
  ability of HP to enhance caspase-3-like activities: suppresses

## CC(C)(C)OO [t-BHP]
CFs and DFs
  lipid peroxidation (DPPP fluorescence): enhancement in lipid peroxidation

## CC(C)(C)c1cc(O)ccc1O [tBHQ, tert-butylhydroquinone]
Nrf2 [6]
  Nrf2 in the nuclei-enriched fraction: markedly elevated
[8]; DFs, FIG. 3E
  percent increase of Nrf2-dependent transcripts (catalase, GSTP1, GCLC, NQO1): 32%-78%
[8]; cells with overabundant oxidative stress and impaired Nrf2 response
  upregulation of anti-oxidative enzymes: 1.5 to 2 fold
Nrf2 [4]
  nuclear accumulation of Nrf2: far smaller increase
[7]; [10]
  increase of GCLC mRNA expression: 5-7 fold and 5.7 fold
  increase of GSTP1 mRNA expression: 5-7 fold and 6.3 fold
  increase of NQO1 mRNA expression: 4-6 fold and 4.8 fold
  increase of catalase mRNA expression: 7-10 fold and 8.8 fold
[7]; normal fibroblasts, tBHQ treatment
  increase of GR mRNA expression: 3-4 fold
[7]; tBHQ treatment, cell type not given
  levels of Cu/Zn SOD or Mn-SOD (SOD2) mRNA: no observable changes
Nrf2 [9]
  level of Nrf2 in total cell lysates: elevates
